These results are taken from patent US20250230188A1, “METAGENOME-GUIDED BIOSYNTHESIS AND COMPOUNDS AND METHODS OF USE THEREOF” (The Rockefeller University, priority 2022, published 2025).

One test deals with E. faecium com15. Nature of the test: Syn-BNP MIC against ESKAPE pathogens: E. faecium. It is filed as cell-based, Enterococcus faecium. To be noted: for MIC: E. faecium com15, Gram-positive. As to the method:
(§1) All syn-BNPs, as well as the parent antibiotic albicidin were assayed for antimicrobial activity against the ESKAPE pathogens (Enterococcus faecium, Staphylococcus aureus, Klebsiella pneumoniae, Acinetobacter baumannii, Pseudomonas aeruginosa, and Enterobacter species), which are a collection of bacteria most commonly associated with antibacterial resistant nosocomial infections. […]

For the next test, the system named is S. aureus SH1000. Nature of the test: Syn-BNP MIC against ESKAPE pathogens: S. aureus. To be noted: for MIC: S. aureus SH1000, Gram-positive. It is filed as cell-based, Staphylococcus aureus. As to the method: as §1
The next test deals with K. pneumoniae 10031. Nature of the test: Syn-BNP MIC against ESKAPE pathogens: K. pneumoniae. To be noted: for MIC: K. pneumoniae 10031, Gram-negative. The class given is cell-based, Klebsiella pneumoniae. The procedure:
(§2) All syn-BNPs, as well as the parent antibiotic albicidin were assayed for antimicrobial activity against the ESKAPE pathogens (Enterococcus faecium, Staphylococcus aureus, Klebsiella pneumoniae, Acinetobacter baumannii, Pseudomonas aeruginosa, and Enterobacter species), which are a collection of bacteria most commonly associated with antibacterial resistant nosocomial infections.

The subject of a further test is A. baumannii. The experiment in a line: Syn-BNP MIC against ESKAPE pathogens: A. baumannii. It is filed as cell-based, Acinetobacter baumannii. The conditions noted are these: for MIC: Gram-negative. As to the method:
as §2

The subject of a further test is P. aeruginosa. Nature of the test: Syn-BNP MIC against ESKAPE pathogens: P. aeruginosa. The class given is cell-based, Pseudomonas aeruginosa. The conditions noted are these: Gram-negative. As to the method: as §2
For the next test, the system named is E. cloacae 13047. The experiment in a line: Syn-BNP MIC against ESKAPE pathogens: E. cloacae. To be noted: E. cloacae 13047, Gram-negative. It is filed as cell-based, Enterobacter cloacae. The procedure:
as §2

For the next test, the system named is E. coli 25922. The experiment in a line: Syn-BNP MIC against E. coli. It is filed as cell-based, Escherichia coli. The conditions noted are these: E. coli 25922, Gram-negative.
The subject of the next test is E. coli-BL21 (pET28c). The class given is cell-based, Escherichia coli. The conditions noted are these: empty vector. The text has this:
(§3) As circumventing common antibiotic resistance mechanisms was likely to play a key role in the natural selection of antibiotic congeners, the present studies investigated whether some of the congeners evolved to evade AlbD-mediated cleavage. To determine the susceptibility of the herein described BGC-inspired analogs to AlbD encoded resistance, the MIC of each syn-BNP against E. coli engineered to express AlbD was compared to that of E. coli containing an empty expression vector.

Test [1] has as its system E. coli-BL21 (pET28c-AlbD). The class given is cell-based, Escherichia coli. The conditions noted are these: for Fold increase in MIC: AlbD expressing strain versus empty vector strain; for MIC: E. coli-BL21 (pET28c-AlbD); for susceptibility to AlbD encoded resistance: E. coli expressing AlbD versus empty vector.
From the text: as §3

A further test addresses DNA gyrase (Escherichia coli, UniProt P0AES4+P0AES6). To be noted: FIG. 9. The text has this: Further studies are focused on an investigation of other mutations via a clinical introduction of this class of antibiotics.

In brackets after ≈: the same amount, converted by molar mass. Entries after “also recorded” stand apart in the source; their conditions may differ. Where two headings read alike, the source gives them in different places.

Chain of DNA gyrase (P0AES4 whole entry, one chain of several): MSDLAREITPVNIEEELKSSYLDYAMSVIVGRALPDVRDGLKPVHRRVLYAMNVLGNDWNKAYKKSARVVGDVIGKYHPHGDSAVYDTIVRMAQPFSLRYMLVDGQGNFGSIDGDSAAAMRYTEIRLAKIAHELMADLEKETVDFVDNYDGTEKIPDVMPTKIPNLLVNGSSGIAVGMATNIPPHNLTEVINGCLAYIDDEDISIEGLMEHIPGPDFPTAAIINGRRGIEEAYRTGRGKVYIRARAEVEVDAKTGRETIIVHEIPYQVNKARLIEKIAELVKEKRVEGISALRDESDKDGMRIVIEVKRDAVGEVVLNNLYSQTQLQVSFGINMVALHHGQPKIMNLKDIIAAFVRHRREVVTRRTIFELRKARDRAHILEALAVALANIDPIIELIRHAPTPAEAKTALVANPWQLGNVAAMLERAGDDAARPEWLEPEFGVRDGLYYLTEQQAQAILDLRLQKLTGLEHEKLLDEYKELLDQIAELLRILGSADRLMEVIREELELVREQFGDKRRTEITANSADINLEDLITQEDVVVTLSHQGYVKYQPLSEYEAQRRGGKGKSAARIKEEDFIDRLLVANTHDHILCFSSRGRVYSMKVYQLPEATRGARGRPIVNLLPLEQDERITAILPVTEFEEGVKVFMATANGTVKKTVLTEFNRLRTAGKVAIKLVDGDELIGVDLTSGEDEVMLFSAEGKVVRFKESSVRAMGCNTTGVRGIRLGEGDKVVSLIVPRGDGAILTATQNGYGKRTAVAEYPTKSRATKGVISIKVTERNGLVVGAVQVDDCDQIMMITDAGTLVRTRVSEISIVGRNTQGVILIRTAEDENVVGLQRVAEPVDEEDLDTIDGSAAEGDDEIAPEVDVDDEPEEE

Regarding `CO[C@@H](C(N)=O)[C@H](NC(=O)c1ccc(NC(=O)[C@@H](N)Cc2ccc(O)cc2)cc1)C(=O)Nc1ccc(C(=O)Nc2ccc(C(=O)Nc3ccc(C(=O)O)c(O)c3OC(C)C)c(O)c2OC(C)C)cc1` [PABA70], the MIC is 1 µg/mL (≈ 1.05 µM) in the test with E. faecium com15; 1 µg/mL (≈ 1.05 µM) in the test with S. aureus SH1000; 1 µg/mL (≈ 1.05 µM) against K. pneumoniae 10031; 4 µg/mL (≈ 4.21 µM) in the test on A. baumannii; greater than 8 µg/mL against P. aeruginosa; greater than 8 µg/mL in the test with E. cloacae 13047. The figures for the MIC (with E. coli 25922; in the test on E. coli-BL21 (pET28c); in [1]) were 2 µg/mL (≈ 2.11 µM), 0.5 µg/mL (≈ 0.526 µM) and greater than 64 µg/mL, respectively. The “Fold increase in MIC” value in test [1] is reported as greater than 128 fold.

`CO[C@@H](C(N)=O)[C@H](NC(=O)c1ccc(NC(=O)[C@@H](N)Cc2ccc(O)cc2)cc1)C(=O)Nc1ccc(C(=O)Nc2ccc(C(=O)Nc3ccc(C(=O)O)cc3)c(O)c2OC(C)C)cc1` [PABA57]: the MIC against E. faecium com15 was greater than 8 µg/mL; against S. aureus SH1000, greater than 8 µg/mL; against K. pneumoniae 10031, 1 µg/mL (≈ 1.14 µM); in the test on A. baumannii, greater than 8 µg/mL; in the test on P. aeruginosa, greater than 8 µg/mL; against E. cloacae 13047 it was greater than 8 µg/mL. In addition, the MIC with E. coli 25922 was 2 µg/mL (≈ 2.28 µM); against E. coli-BL21 (pET28c) it was 0.5 µg/mL (≈ 0.571 µM); in [1] it was greater than 64 µg/mL. Moreover, in test [1], the “Fold increase in MIC” value is given as greater than 128 fold.

For `COc1c(NC(=O)c2ccc(NC(=O)c3ccc(NC(=O)[C@H](CC#N)NC(=O)c4ccc(NC(=O)/C(C)=C/c5ccc(O)cc5)cc4)cc3)c(OC)c2O)ccc(C(=O)O)c1O` [Albicidin, reference compound], the MIC in the test on E. faecium com15 is 2 µg/mL (≈ 2.37 µM); against S. aureus SH1000 it was 0.5 µg/mL (≈ 0.593 µM); with K. pneumoniae 10031 it was greater than 8 µg/mL; against A. baumannii, 0.125 µg/mL (≈ 0.148 µM); against P. aeruginosa it was 1 µg/mL (≈ 1.19 µM); against E. cloacae 13047 it was 8 µg/mL (≈ 9.49 µM). Moreover, the MIC was 0.015 µg/mL (≈ 0.0178 µM) against E. coli 25922, 0.0019 µg/mL (≈ 0.00225 µM) against E. coli-BL21 (pET28c) and 0.25 µg/mL (≈ 0.297 µM) in test [1]. Further, the “Fold increase in MIC” value in test [1] turned out to be 131 fold.

Consider `COc1c(NC(=O)/C(C)=C/c2ccc(O)cc2)ccc(C(=O)N[C@@H](CC#N)C(=O)Nc2ccc(C(=O)Nc3ccc(C(=O)Nc4ccc(C(=O)O)cc4)c(O)c3OC)cc2)c1O` [PABA95], for which the MIC in the test on E. faecium com15 was 8 µg/mL (≈ 9.49 µM); in the test with S. aureus SH1000 it was 4 µg/mL (≈ 4.75 µM); in the test with K. pneumoniae 10031 it was greater than 8 µg/mL; in the test on A. baumannii it was 0.5 µg/mL (≈ 0.593 µM); in the test on P. aeruginosa, 8 µg/mL (≈ 9.49 µM); against E. cloacae 13047, 8 µg/mL (≈ 9.49 µM). The MIC against E. coli 25922 worked out at 0.25 µg/mL (≈ 0.297 µM); against E. coli-BL21 (pET28c) it was 0.015 µg/mL (≈ 0.0178 µM); in test [1], 2 µg/mL (≈ 2.37 µM). Also, the “Fold increase in MIC” value in test [1] was determined as 133 fold.

As to `COc1c(NC(=O)/C(C)=C/c2ccc(O)cc2)ccc(C(=O)N[C@@H](CC#N)C(=O)Nc2ccc(C(=O)Nc3ccc(C(=O)Nc4ccc(C(=O)O)cc4)c(O)c3OC)c(O)c2OC)c1O` [PABA95-2], in the test on E. coli-BL21 (pET28c), the MIC is 0.06 µg/mL (≈ 0.0675 µM). In test [1], the “Fold increase in MIC” value is on record as 8 fold, the “susceptibility to AlbD encoded resistance” value is “not susceptible to AlbD encoded resistance” and inhibition of growth (MIC) required 0.5 µg/mL (≈ 0.563 µM).

In the case of `COc1c(NC(=O)c2ccc(NC(=O)[C@H](CC#N)NC(=O)c3ccc(NC(=O)/C(C)=C/c4ccc(O)cc4)cc3)c(OC)c2O)ccc(C(=O)Nc2ccc(C(=O)O)cc2)c1O` [PABA34], the MIC is greater than 8 µg/mL against E. faecium com15; greater than 8 µg/mL against S. aureus SH1000; greater than 8 µg/mL against K. pneumoniae 10031; 2 µg/mL (≈ 2.37 µM) in the test with A. baumannii; 2 µg/mL (≈ 2.37 µM) against P. aeruginosa; 2 µg/mL (≈ 2.37 µM) with E. cloacae 13047. Moreover, the MIC came to 0.0075 µg/mL (≈ 0.0089 µM) in the test on E. coli-BL21 (pET28c) and 0.03 µg/mL (≈ 0.0356 µM) in [1]. For the same molecule, the “Fold increase in MIC” value in [1] is 4 fold. In addition, in [1], the “susceptibility to AlbD encoded resistance” value is “resistant to proteolytic cleavage by AlbD; also recorded: not susceptible to AlbD encoded resistance”. The “affinity for DNA gyrase” value on DNA gyrase is given as “retained a high affinity for DNA gyrase”.

In the case of `O=C(O)c1cn(C2CC2)c2cc(N3CCNCC3)c(F)cc2c1=O` [Ciprofloxacin, reference compound], the MIC was determined as 0.5 µg/mL (≈ 1.51 µM) in the test on E. faecium com15 (Enterococcus faecium, read-out: MIC); 0.5 µg/mL (≈ 1.51 µM) with S. aureus SH1000 (Staphylococcus aureus, read-out: MIC); 0.0075 µg/mL (≈ 0.0226 µM) in the test with E. coli 25922 (Escherichia coli, read-out: MIC).

As to `CO[C@@H](C(N)=O)[C@H](NC(=O)c1ccc(NC(=O)[C@@H](N)Cc2ccccc2)cc1)C(=O)Nc1ccc(C(=O)Nc2ccc(C(=O)Nc3ccc(C(=O)O)c(O)c3OC(C)C)c(O)c2OC(C)C)cc1` [PABA48], the entries for the “fold more potent than albicidin” value in the test with E. faecium com15 (E. faecium), with S. aureus SH1000 (S. aureus) and with K. pneumoniae 10031 (K. pneumoniae) were 16 fold, 2 fold and greater than 64 fold, respectively. The MIC against E. faecium com15 was 0.125 µg/mL (≈ 0.134 µM); in the test on S. aureus SH1000, 0.25 µg/mL (≈ 0.268 µM); in the test with K. pneumoniae 10031, 0.125 µg/mL (≈ 0.134 µM); in the test on A. baumannii, 0.125 µg/mL (≈ 0.134 µM); against P. aeruginosa it was greater than 8 µg/mL; in the test on E. cloacae 13047, greater than 8 µg/mL. Moreover, the figures for the MIC (with E. coli 25922; against E. coli-BL21 (pET28c); in test [1]) were 0.125 µg/mL (≈ 0.134 µM), 0.06 µg/mL (≈ 0.0642 µM) and greater than 8 µg/mL, respectively. Besides, the “MIC compared with albicidin” value in the test on A. baumannii is reported as “same MIC as albicidin”. Moreover, the “Fold increase in MIC” value in [1] is recorded as greater than 133 fold.
